From publication PMC6375636, “Monotherapy with a low-dose lipopeptide HIV fusion inhibitor maintains long-term viral suppression in rhesus macaques” (PLoS Pathogens, 2019)
Peptide text beside a SMILES is read from it. * marks the point of attachment. Stearoyl = CCCCCCCCCCCCCCCCCC(=O)*

Tests used:
HIV-1 LAI = format: cell-based; settings: Table 2, subtype B, X4, mean ± SD of 3 assays in triplicate
Experimental: (§1) The inhibitory activities of inhibitors against HIV-1 pseudoviruses and replication-competent isolates were measured as described previously. Briefly, HIV-1 pseudoviruses were generated via the cotransfection of HEK293T cells with an Env-expressing plasmid and a backbone plasmid that encodes Env-defective, luciferase-expressing HIV-1 genome (pSG3Δenv). Viral stocks of replication-competent HIV-1 isolates were generated by transfecting viral molecular clones into HEK293T cells. Culture supernatants were harvested at 48 h posttransfection, and 50% tissue culture infectious doses (TCID50) in TZM-bl cells were determined. Inhibitors were prepared in 3-fold dilutions, mixed with 100 TCID50 of a virus, and then incubated for 1 h at room temperature. The mixture was added to TZM-bl cells (10^4/well), and the cells were incubated for additional 48 h at 37°C. Luciferase activity was measured as described above.

[1] = system: HIV-1 pseudovirus, primary Env CAP210.2.00.E8; format: cell-based; settings: Env CAP210.2.00.E8, subtype C; mean ± SD of 3 assays in triplicate
Experimental: as §1

[2] = system: HIV-1 pseudovirus, primary Env PVO; format: cell-based; settings: subtype B, mean ± SD of 3 assays in triplicate
Experimental: as §1

[3] = system: HIV-1 pseudovirus, primary Env HIV_25710–2.43; format: cell-based; settings: Env HIV_25710–2.43, subtype C; mean ± SD of 3 assays in triplicate
Experimental: as §1

[4] = system: HIV-1 pseudovirus, primary Env CAP45.2.00.G3; format: cell-based; settings: Env CAP45.2.00.G3, subtype C; mean ± SD of 3 assays in triplicate
Experimental: as §1

HIV-1 RHPA.c/2635 = format: cell-based; settings: Table 2; RHPA.c/2635, subtype B, R5; mean ± SD of 3 assays in triplicate
Experimental: as §1

[5] = system: HIV-1 pseudovirus, primary Env CH119.10; format: cell-based; settings: Env CH119.10, subtype B/C; mean ± SD of 3 assays in triplicate
Experimental: as §1

[6] = system: HIV-1 pseudovirus, primary Env CNE55; format: cell-based; settings: Env CNE55, subtype A/E; mean ± SD of 3 assays in triplicate
Experimental: as §1

[7] = system: HIV-1 pseudovirus, primary Env B02; format: cell-based; settings: Env B02, subtype B'; mean ± SD of 3 assays in triplicate
Experimental: as §1

[8] = system: HIV-1 pseudovirus, primary Env AE03; format: cell-based; settings: Env AE03, subtype A/E; mean ± SD of 3 assays in triplicate
Experimental: as §1

HIV-1 89.6 = format: cell-based; settings: Table 2; 89.6, subtype B, R5X4; mean ± SD of 3 assays in triplicate
Experimental: as §1

[9] = system: HIV-1 pseudovirus, primary Env SF162; format: cell-based; settings: Env SF162, subtype B; mean ± SD of 3 assays in triplicate
Experimental: as §1

[10] = system: HIV-1 pseudovirus, primary Env 92UG037.8; format: cell-based; settings: Env 92UG037.8, subtype A; mean ± SD of 3 assays in triplicate
Experimental: as §1

HIV-1 SG3 = format: cell-based; settings: Table 2; SG3, subtype B, X4; mean ± SD of 3 assays in triplicate
Experimental: as §1

[11] = system: HIV-1 pseudovirus, primary Env ZM53M.PB12; format: cell-based; settings: Env ZM53M.PB12, subtype C; mean ± SD of 3 assays in triplicate
Experimental: as §1

HIV-1 THRO.c/2626 = format: cell-based; settings: Table 2; THRO.c/2626, subtype B, R5; mean ± SD of 3 assays in triplicate
Experimental: as §1

[12] = system: HIV-1 pseudovirus, primary Env GX11.13; format: cell-based; settings: Env GX11.13, subtype A/E; mean ± SD of 3 assays in triplicate
Experimental: as §1

[13] = system: HIV-1 pseudovirus, primary Env CNE8; format: cell-based; settings: Env CNE8, subtype A/E; mean ± SD of 3 assays in triplicate
Experimental: as §1

[14] = system: HIV-1 pseudovirus, primary Env CH110; format: cell-based; settings: Env CH110, subtype B/C; mean ± SD of 3 assays in triplicate
Experimental: as §1

HIV-1HXB2 Env = target: T1, HIV-1HXB2 Env (Human immunodeficiency virus type 1 group M subtype B, UniProt P04578); test: HIV-1HXB2 Env-mediated cell-cell fusion (HL2/3 effector, TZM-bl target, luciferase reporter); format: cell-based
T1 construct: HL2/3 cells, which stably express high levels of Env, Gag, Tat, Rev, and Nef proteins of the integrated HIV-1 molecular clone HXB2/3gpt; host or cells: HL2/3 cells (effector), cocultured with TZM-bl target cells
Experimental: The inhibitory activities of inhibitors on HIV-1HXB2 Env-mediated cell-cell fusion were determined by a reporter gene assay based on the activation of an HIV LTR-driven luciferase cassette in TZM-bl cells (target) by HIV-1 tat from HL2/3 cells (effector). Briefly, 1 x 10^4/well of TZM-bl cells were plated in 96-well plates and incubated at 37°C overnight. Then, 3 x 10^4/well of HL2/3 cells were cocultured with target cells for 6 h at 37°C in the presence or absence of an inhibitor at graded concentrations. Luciferase activity was measured using luciferase assay reagents and a Luminescence Counter (Promega, Madison, Wisconsin, USA).

[15] = target: T2, gp41 NHR-derived target mimic peptide N39 (Human immunodeficiency virus type 1 group M subtype B, UniProt P04578); test: CD spectroscopy of lipopeptides in complex with target mimic peptide N39; format: binding, HIV-1; design: [θ]222: unit not given here; settings: complex with N39, each peptide 10 μM in PBS; representative of 2 assays
T2 construct: the gp41 NHR-derived target mimic peptide N39
From the text: Spectra were corrected by subtracting a solvent blank.

[16] = system: HIV-1 pseudovirus, primary Env BJOX002000.03.2; format: cell-based; settings: Env BJOX002000.03.2, subtype B/C; mean ± SD of 3 assays in triplicate
Experimental: as §1

T2 sequence (P04578 528-566): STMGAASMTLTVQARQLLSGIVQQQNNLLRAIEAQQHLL
T1 sequence (P04578 512-856): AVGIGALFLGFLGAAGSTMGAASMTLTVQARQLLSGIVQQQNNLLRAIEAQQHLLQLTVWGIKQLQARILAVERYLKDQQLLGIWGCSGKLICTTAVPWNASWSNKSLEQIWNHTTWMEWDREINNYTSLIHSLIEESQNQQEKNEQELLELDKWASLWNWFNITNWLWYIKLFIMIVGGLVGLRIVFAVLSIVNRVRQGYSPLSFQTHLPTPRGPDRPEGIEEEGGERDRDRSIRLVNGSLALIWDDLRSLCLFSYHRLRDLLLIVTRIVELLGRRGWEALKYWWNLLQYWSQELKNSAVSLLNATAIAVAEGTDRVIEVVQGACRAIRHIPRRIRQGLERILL

Compound	IC50 (HIV-1 LAI)	IC50 [1]	IC50 [2]	IC50 [3]	IC50 [4]	IC50 (HIV-1 RHPA.c/2635)	IC50 [5]	IC50 [6]	IC50 [7]	IC50 [8]	IC50 (HIV-1 89.6)	IC50 [9]	IC50 [10]	IC50 (HIV-1 SG3)	IC50 [11]	IC50 (HIV-1 THRO.c/2626)	IC50 [12]	IC50 [13]	IC50 [14]	also measured
CCCCCCCCCCCCCCCCCC(=O)NCCCC[C@H](NC(=O)[C@H](CCC(=O)O)NC(=O)[C@H](CC(C)C)NC(=O)[C@H](CCCCN)NC(=O)[C@H](CCCCN)NC(=O)[C@H](CC(C)C)NC(=O)[C@H](CCC(=O)O)NC(=O)[C@H](CCC(=O)O)NC(=O)[C@H](CCC(=O)O)NC(=O)[C@H](CC(N)=O)NC(=O)[C@H](CCCCN)NC(=O)[C@H](CCCCN)NC(=O)[C@H](CCC(N)=O)NC(=O)[C@H](CCC(N)=O)NC(=O)[C@H](CCC(=O)O)NC(=O)[C@H](CCC(=O)O)NC(=O)[C@H](C)NC(=O)[C@H](CCCCN)NC(=O)[C@H](CCCCN)NC(=O)[C@H](CC(C)C)NC(=O)[C@H](CC(C)C)NC(=O)[C@H](CCC(=O)O)NC(=O)[C@H](CCC(=O)O)NC(=O)[C@@H](NC(C)=O)[C@@H](C)CC)C(N)=O [LP-90] (Ac-IEELLKKAEEQQKKNEEELKKLEK(Stearoyl)-NH2)	0.00834 ± 0.00154 nM	0.0291 ± 0.00133 nM	0.0226 ± 0.0047 nM	0.016 ± 0.00293 nM	0.00214 ± 0.00013 nM	0.00536 ± 0.00166 nM	0.0108 ± 0.00236 nM	0.00254 ± 0.00089 nM	0.0155 ± 0.00368 nM	0.0141 ± 0.00417 nM	0.0574 ± 0.0109 nM	0.00482 ± 0.00091 nM	0.00842 ± 0.00152 nM	0.00167 ± 0.00061 nM	0.00881 ± 0.00046 nM	0.0146 ± 0.00224 nM	0.0248 ± 0.00159 nM	0.0225 ± 0.0026 nM	0.00785 ± 0.00122 nM	IC50 (HIV-1HXB2 Env): 0.0163 nM; Helix content (%) [15]: 42%; [θ]222 [15]: -13989
enfuvirtide [Lipopeptide T-20, reference compound]	1.16 ± 0.103 nM	123 ± 4.77 nM	69.7 ± 0.698 nM	13.7 ± 1.85 nM	13.6 ± 2.04 nM	6.52 ± 1.33 nM	11.5 ± 1.75 nM	25.1 ± 2.33 nM	10.4 ± 0.529 nM	12.38 ± 0.109 nM	15.4 ± 5.88 nM	17.6 ± 1.03 nM	7.76 ± 1.04 nM	2.85 ± 0.227 nM	22.7 ± 0.943 nM	31.3 ± 2.39 nM	24.9 ± 2.21 nM	24.8 ± 1.88 nM	31 ± 2.67 nM	IC50 [16]: 26.3 ± 2.77 nM
